For experiment [1], the system named is NGF, BDNF, NT-3 and NT-4 expression in cortical neurons. Put plainly: Neurotrophin gene expression (real-time PCR) in cortical neurons following NMDA treatment. Type of experiment: cell-based. Conditions: 24 hrs pre-treatment, then NMDA 20 μM 20 min; vs DMSO+NMDA. How it is done:
Cortical neurons were incubated with DA001 or the DMSO control for 24 hrs, followed by treatment with NMDA (20 μM) or water for 20 min. Gene expression was normalized against the house-keeping gene, hypoxanthine phosphoribosyltransferase 1 (HPRT1) and glyceraldehyde 3-phosphate dehydrogenase (GAPDH) and compared to the control (DMSO) with NMDA treatment. Relative changes in gene expression induced by DA001+NMDA was compared with DMSO+NMDA.
Cortical neurons of 11 DIV-12 DIV were pre-incubated with DA001 or DMSO for 24 hours. Cells were washed in Locke's medium without magnesium for 15 min, followed by the treatment of NMDA (20 μM) or water for 20 min. Neurons were incubated with normal growth medium and total RNA were extracted at different time intervals after or without NMDA treatment. Total RNA was extracted using RNeasy Mini kit (Qiagen) according to the manufacturer's protocol, and was reverse-transcribed into single-stranded cDNA with SuperScript II Reverse Transcriptase (Invitrogen) and oligo-dT primers. Real-time Quantitative PCR was performed using Power SYBR Green PCR Master Mix (Applied Biosystems) on the Mx3000P Real-Time PCR System (Stratagene). Thermal cycling was initiated with a 10-min denaturation step at 95° C., followed by 40 cycles of 95° C. for 30 sec, 60° C. for 1 min and 72° C. for 30 sec. The final product was subjected to a Meltcurve detection at the end of the reaction. Regulation of the gene expression was normalized against home gene, hypoxanthine phosphoribosyltransferase 1 (HPRT1) and glyceraldehyde 3-phosphate dehydrogenase (GAPDH). Real-time PCR primers are as follows.
Cortical neurons were pre-treated with DA001 after which the cells were subjected to NMDA insult. The expression of neurotrophins was measured at three different time intervals. DA001 induced NGF, BDNF and NT-3 expression but not NT-4 under the same conditions. FIG. 3 illustrates that cortical neurons were incubated with DA001 or the DMSO control for 24 hrs, followed by treatment with NMDA (20 μM) or water for 20 min. […]
A general note: Real-time PCR tracks product formation cycle by cycle.

The target of a further experiment is DP receptor (Homo sapiens, UniProt Q13258). Put plainly: Radioligand competition binding assay, DP. Conditions: target PGD, compound at 10 μM in duplicate, read-out: % inhibition of control specific binding. How it is done:
To determine the targets of DA compounds, the compound was assessed in binding assays for the family of prostanoid receptors. Both compounds were tested at a single concentration (10 μM) in duplicate. DA001 and DA021 inhibit the ligand binding of prostaglandin E2 receptors EP1, EP2 and EP4 and moderately to prostaglandin (PGF) to its receptor (FP), but not prostaglandin I (PGI2), thromoboxane A and prostaglandin D2 to their receptors.
For orientation: Displacement assays read how much labelled ligand stays bound in the presence of the test substance.

The subject of the next experiment is hippocampal neurons. Put plainly: Hippocampal neuron survival assay against glutamate excitotoxicity (LDH). It is filed as cell-based, Sprague-Dawley rats. The conditions noted are these: 30 μM 24 hrs, glutamate 10-200 μM 20 min. How it is done: Hippocampal neurons/cortical neurons were prepared from embryonic day 18 Sprague-Dawley rats. After the cortices had been removed from the brain, isolated cells were plated onto Poly d-Lysine (PDL) (P0899, Sigma)-coated 48 well plates (150687, NUNC) at a density of 2×10^5 cell per well using Neurobasal Medium (NB) (21103-049, Gibco) with B27 supplement (17504-044, Gibco), penicillin/streptomycin (15140, Gibco) and 1 mM L-glutamine (25030, Gibco). The cell culture was incubated at 37° C. in a humidified atmosphere of 5% CO2 in air. Medium was changed to growth medium (Neurobasal Medium with penicillin/streptomycin and B27 supplement) after 3 hours. Half medium was changed with growth medium every 2-3 days to maintain the cells until day 10 in vitro (DIV 10). Serial dilutions of samples were prepared in growth medium and DMSO was used as vehicle control. For pre-treating assay, half of the medium was removed from wells, and equal amount of diluted samples were replaced. Cells were then incubated for 2 hours at 37° C. in a humidified atmosphere of 5% CO2 in air. […] Afterwards, cells were incubated in growth medium for 18-24 hours and detected with Cytotoxicity Detection Kit (1644793, Roche).
Hippocampal neurons were treated with DA021 and subsequently subjected to varying concentrations of glutamate. […] LDH release into the medium was then measured.

What is called inhibition is the relative decrease from the control value, in per cent.

DP receptor, sequence (Q13258 whole entry): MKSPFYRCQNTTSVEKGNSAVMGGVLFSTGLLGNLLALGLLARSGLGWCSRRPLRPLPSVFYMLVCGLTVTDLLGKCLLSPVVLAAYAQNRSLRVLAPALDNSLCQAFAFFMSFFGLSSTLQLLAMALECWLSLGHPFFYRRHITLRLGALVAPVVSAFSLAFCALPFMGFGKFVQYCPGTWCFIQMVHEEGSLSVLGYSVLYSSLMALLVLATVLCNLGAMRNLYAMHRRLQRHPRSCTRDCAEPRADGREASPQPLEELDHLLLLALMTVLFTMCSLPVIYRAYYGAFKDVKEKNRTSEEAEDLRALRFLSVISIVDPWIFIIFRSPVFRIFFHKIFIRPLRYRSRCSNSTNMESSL

As to `C=C(C)[C@@H]1CC[C@]2(C(=O)O)CC[C@]3(C)C(CC[C@@H]4[C@@]5(C)CC[C@H](O[C@@H]6OC[C@H](O)[C@H](O)[C@H]6O[C@@H]6O[C@@H](C)[C@H](O)[C@@H](O)[C@H]6O)[C@@](C)(CO)[C@@H]5CC[C@]43C)[C@@H]12` (stereo partly drawn) [DA001, 3-O-[α-L-rhamnopyranosyl-(1→2)-α-L-arabinopyranosyl]-3,23-dihydroxy-20(29)-lupen-28-oic acid], in experiment [1], the BDNF expression entry was “induced”, the NGF expression entry was “induced” and the NT-3 expression result is recorded as “induced”.

Regarding `C=C(C)[C@@H]1CC[C@]2(/C=N/O)CC[C@]3(C)C(CCC4[C@@]5(C)CCC(=O)[C@@](C)(CO)[C@@H]5CC[C@]43C)C12` (some centres unmarked) [DA021], on DP receptor, the inhibition at 10 µM was 0%. Also, the “protection from glutamate-induced excitotoxicity (LDH release)” value in the experiment with hippocampal neurons is given as “protects neurons against differing concentrations of glutamate”.
